Source: ChEMBL document CHEMBL1141945, “Synthesis and biological evaluation of novel (L)-alpha-amino acid methyl ester, heteroalkyl, and aryl substituted 1,4-naphthoquinone derivatives as antifungal and antibacterial agents” (2005)
Values after ≈ are worked out from the molar mass of the structure shown.

Experiments:
[1] = tested on: Candida albicans; test: Antifungal activity against Candida albicans; format: functional
[2] = tested on: Sporothrix schenckii; test: Antifungal activity against Sporothrix schenckii; format: functional
[3] = tested on: Cryptococcus neoformans; test: Antifungal activity against Cryptococcus neoformans; format: functional
[4] = tested on: Enterococcus faecalis; test: Antibacterial activity against Streptococcus faecalis; format: functional
[5] = tested on: Pseudomonas aeruginosa; test: Antibacterial activity against Pseudomonas aeruginosa; format: functional
[6] = tested on: Staphylococcus aureus; test: Antibacterial activity against Staphylococcus aureus; format: functional
[7] = tested on: Escherichia coli; test: Antibacterial activity against Escherichia coli; format: functional
[8] = tested on: Klebsiella pneumoniae; test: Antibacterial activity against Klebsiella pneumoniae; format: functional
[9] = tested on: Trichophyton benhamiae; test: Antifungal activity against Trichophyton mentagrophytes; format: functional, Arthroderma benhamiae
[10] = tested on: Aspergillus fumigatus; test: Antifungal activity against Aspergillus fumigatus; format: functional
[11] = tested on: Candida parapsilosis; test: Antifungal activity against Candida parapsilosis; format: functional; details: Lodderomyces parapsilosis, ATCC 22019

| Compound | MIC [1] [µg/mL] | MIC [2] [µg/mL] | MIC [3] [µg/mL] | MIC [4] [µg/mL] | MIC [5] [µg/mL] | MIC [6] [µg/mL] | MIC [7] [µg/mL] | MIC [8] [µg/mL] | MIC [9] [µg/mL] | MIC [10] [µg/mL] | MIC [11] [µg/mL] | MIC90 [5] [µg/mL] | MIC90 [6] [µg/mL] | MIC90 [7] [µg/mL] | MIC90 [8] [µg/mL] |
| --- | --- | --- | --- | --- | --- | --- | --- | --- | --- | --- | --- | --- | --- | --- | --- |
| NYSTATIN | 7.8 | 13.2 | 3.5 | – | – | – | – | – | – | – | – | – | – | – | – |
| COC(=O)C/N=C1/C(=O)c2ccccc2C(O)=C1O | – | – | – | 50 (≈ 191 µM) | 50 (≈ 191 µM) | 50 (≈ 191 µM) | 50 (≈ 191 µM) | > 50 | – | – | – | – | – | – | – |
| O=C1c2ccccc2C(=O)c2c1sc1nccn21 | 50 (≈ 197 µM) | 25 (≈ 98.3 µM) | 12.5 (≈ 49.2 µM) | 25 (≈ 98.3 µM) | > 50 | 50 (≈ 197 µM) | 50 (≈ 197 µM) | > 50 | 25 (≈ 98.3 µM) | 25 (≈ 98.3 µM) | – | – | – | – | – |
| COC(=O)C(CCSC)/N=C1\C=C(O)c2ccccc2C1=O (centres undefined) | > 50 | > 50 | 25 (≈ 78.3 µM) | 12.5 (≈ 39.1 µM) | > 50 | > 50 | > 50 | 6.25 (≈ 19.6 µM) | > 50 | > 50 | > 50 | – | – | – | – |
| COC(=O)C(CC(C)C)/N=C1\C=C(O)c2ccccc2C1=O (centres undefined) | > 50 | > 50 | 25 (≈ 83 µM) | 12.5 (≈ 41.5 µM) | > 50 | 12.5 (≈ 41.5 µM) | 12.5 (≈ 41.5 µM) | 6.25 (≈ 20.7 µM) | > 50 | > 50 | 50 (≈ 166 µM) | – | – | – | – |
| CC(C)N(C1=CC(=O)c2c(O)ccc(O)c2C1=O)C(C)C | > 50 | > 50 | > 50 | – | – | – | – | – | 50 (≈ 173 µM) | > 50 | – | – | – | – | – |
| O=C1c2sc3nccn3c2C(=O)c2c(O)ccc(O)c21 | 25 (≈ 87.3 µM) | < 12.5 | < 12.5 | 25 (≈ 87.3 µM) | > 50 | 50 (≈ 175 µM) | 50 (≈ 175 µM) | > 50 | 25 (≈ 87.3 µM) | > 50 | – | – | – | – | – |
| NC[C@H]1O[C@H](O[C@H]2[C@H](O)[C@@H](O[C@H]3O[C@H](CO)[C@@H](O)[C@H](N)[C@H]3O)[C@H](N)C[C@@H]2N)[C@H](O)[C@@H](O)[C@@H]1O [KANAMYCIN] | – | – | – | – | – | – | – | – | – | – | – | > 128 | 2 (≈ 4.13 µM) | 16 (≈ 33 µM) | 32 (≈ 66 µM) |
| CC(C)N(C1=C(O)C(=O)c2ccccc2C1=O)C(C)C | – | – | – | > 50 | 50 (≈ 183 µM) | > 50 | > 50 | > 50 | – | – | – | – | – | – | – |
| NC[C@H]1O[C@H](O[C@H]2[C@H](O)[C@@H](O[C@H]3O[C@H](CO)[C@@H](O)[C@H](N)[C@H]3O)[C@H](N)C[C@@H]2N)[C@H](N)C[C@@H]1O [TOBRAMYCIN] | – | – | – | 32 (≈ 68.4 µM) | 4 (≈ 8.56 µM) | 0.25 (≈ 0.535 µM) | 0.5 (≈ 1.07 µM) | 1 (≈ 2.14 µM) | – | – | – | – | – | – | – |
| COC(=O)C/N=C1\C=C(O)c2ccccc2C1=O | 50 (≈ 204 µM) | 50 (≈ 204 µM) | 50 (≈ 204 µM) | – | – | – | – | – | > 50 | 25 (≈ 102 µM) | 50 (≈ 204 µM) | – | – | – | – |
| COC(=O)C(C)/N=C1/C(=O)c2ccccc2C(O)=C1O (centres undefined) | > 50 | > 50 | 25 (≈ 90.8 µM) | – | – | – | – | – | > 50 | > 50 | 50 (≈ 182 µM) | – | – | – | – |
| GENTAMICIN | – | – | – | – | 0.78 | 0.78 | – | 0.39 | – | – | – | – | – | – | – |
| O=C1C(=O)c2ccccc2C(O)=C1Sc1ncc[nH]1 | > 50 | > 50 | 50 (≈ 184 µM) | 25 (≈ 91.8 µM) | > 50 | 50 (≈ 184 µM) | > 50 | > 50 | > 50 | > 50 | > 50 | – | – | – | – |
| OC(Cn1cncn1)(Cn1cncn1)c1ccc(F)cc1F [FLUCONAZOLE] | 1 (≈ 3.27 µM) | 2 (≈ 6.53 µM) | 1 (≈ 3.27 µM) | – | – | – | – | – | 0.5 (≈ 1.63 µM) | 2 (≈ 6.53 µM) | 2 (≈ 6.53 µM) | – | – | – | – |
| C[C@@H]1[C@H](O)[C@@H](C)/C=C/C=C/C=C/C=C/C=C/C=C/C=C/[C@H](O[C@@H]2O[C@H](C)[C@@H](O)[C@H](N)[C@@H]2O)C[C@@H]2O[C@](O)(C[C@@H](O)C[C@@H](O)[C@H](O)CC[C@@H](O)C[C@@H](O)CC(=O)O[C@H]1C)C[C@H](O)[C@H]2C(=O)O [AMPHOTERICIN B] | 0.39 (≈ 0.422 µM) | – | 0.78 (≈ 0.844 µM) | – | – | – | – | – | 1.56 (≈ 1.69 µM) | – | – | – | – | – | – |
| COC(=O)C(C)/N=C1\C=C(O)c2ccccc2C1=O (centres undefined) | – | – | – | > 50 | > 50 | > 50 | > 50 | 25 (≈ 96.4 µM) | – | – | – | – | – | – | – |
| COC(=O)C(CCSC)/N=C1/C(=O)c2ccccc2C(O)=C1O (centres undefined) | 12.5 (≈ 37.3 µM) | 25 (≈ 74.5 µM) | 12.5 (≈ 37.3 µM) | 25 (≈ 74.5 µM) | > 50 | > 50 | > 50 | > 50 | 12.5 (≈ 37.3 µM) | 12.5 (≈ 37.3 µM) | 25 (≈ 74.5 µM) | – | – | – | – |
| Clc1ccc(COC(Cn2ccnc2)c2ccc(Cl)cc2Cl)c(Cl)c1 (centres undefined) [MICONAZOLE] | 25 (≈ 60.1 µM) | – | 12.5 (≈ 30 µM) | – | – | – | – | – | < 0.78 | 12.5 (≈ 30 µM) | – | – | – | – | – |
| NCC[C@H](O)C(=O)N[C@@H]1C[C@H](N)[C@@H](O[C@H]2O[C@H](CN)[C@@H](O)[C@H](O)[C@H]2O)[C@H](O)[C@H]1O[C@H]1O[C@H](CO)[C@@H](O)[C@H](N)[C@H]1O [AMIKACIN] | – | – | – | > 64 | 2 (≈ 3.42 µM) | 16 (≈ 27.3 µM) | 1 (≈ 1.71 µM) | 1 (≈ 1.71 µM) | – | – | – | – | – | – | – |
